According to PubChem BioAssay (NCI):
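Growth conditions: 96-well plates. Treatment: test compound, 48 hours, 5 concentrations. Analysis: linear interpolation between bracketing concentrations; unreached endpoints set to highest concentration. The concentration for full growth arrest is given as TGI.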

Key:
Experiment in all cases: DTP human tumour cell line panel, 48 h
786-0 renal = test system: 786-0 renal
A498 renal = test system: A498 renal
A549 NSCLC = test system: A549 NSCLC
ACHN renal = test system: ACHN renal
CAKI-1 renal = test system: CAKI-1 renal
CCRF-CEM leukemia = test system: CCRF-CEM leukemia
COLO 205 colon = test system: COLO 205 colon
DU-145 prostate = test system: DU-145 prostate
EKVX NSCLC = test system: EKVX NSCLC
HCC-2998 colon = test system: HCC-2998 colon
HCT-116 colon = test system: HCT-116 colon
HCT-15 colon = test system: HCT-15 colon
HL-60(TB) leukemia = test system: HL-60(TB) leukemia
HOP-62 NSCLC = test system: HOP-62 NSCLC
HOP-92 NSCLC = test system: HOP-92 NSCLC
HS 578T breast = test system: HS 578T breast
HT29 colon = test system: HT29 colon
IGROV1 ovarian = test system: IGROV1 ovarian
K-562 leukemia = test system: K-562 leukemia
KM12 colon = test system: KM12 colon
LOX IMVI melanoma = test system: LOX IMVI melanoma
M14 melanoma = test system: M14 melanoma
MALME-3M melanoma = test system: MALME-3M melanoma
MCF7 breast = test system: MCF7 breast
MDA-MB-231 breast = test system: MDA-MB-231 breast
MDA-MB-435 = test system: MDA-MB-435
MDA-N = test system: MDA-N
MOLT-4 leukemia = test system: MOLT-4 leukemia
NCI-H226 lung = test system: NCI-H226 lung
NCI-H23 lung = test system: NCI-H23 lung
NCI-H460 lung = test system: NCI-H460 lung
NCI-H522 lung = test system: NCI-H522 lung
NCI/ADR-RES ovarian = test system: NCI/ADR-RES ovarian
OVCAR-3 ovarian = test system: OVCAR-3 ovarian
OVCAR-4 ovarian = test system: OVCAR-4 ovarian
OVCAR-5 ovarian = test system: OVCAR-5 ovarian
OVCAR-8 ovarian = test system: OVCAR-8 ovarian
PC-3 prostate = test system: PC-3 prostate
RPMI-8226 leukemia = test system: RPMI-8226 leukemia
SF-268 CNS = test system: SF-268 CNS
SF-295 CNS = test system: SF-295 CNS
SF-539 CNS = test system: SF-539 CNS
SK-MEL-2 melanoma = test system: SK-MEL-2 melanoma
SK-MEL-28 melanoma = test system: SK-MEL-28 melanoma
SK-MEL-5 melanoma = test system: SK-MEL-5 melanoma
SK-OV-3 ovarian = test system: SK-OV-3 ovarian
SN12C renal = test system: SN12C renal
SNB-19 CNS = test system: SNB-19 CNS
SNB-75 CNS = test system: SNB-75 CNS
SR leukemia = test system: SR leukemia
SW-620 colon = test system: SW-620 colon
T-47D breast = test system: T-47D breast
TK-10 renal = test system: TK-10 renal
U251 CNS = test system: U251 CNS
UACC-257 melanoma = test system: UACC-257 melanoma
UACC-62 melanoma = test system: UACC-62 melanoma
UO-31 renal = test system: UO-31 renal
BT-549 breast = test system: BT-549 breast
RXF 393 renal = test system: RXF 393 renal

## N#Cc1nc(-c2cccc(-c3nc(C#N)c(N)o3)n2)oc1N
786-0 renal
  TGI: > 100 µM
A498 renal
  TGI: > 100 µM
A549 NSCLC
  TGI: > 100 µM
ACHN renal
  TGI: > 100 µM
CAKI-1 renal
  TGI: > 100 µM
CCRF-CEM leukemia
  TGI: 46.9 µM
COLO 205 colon
  TGI: > 100 µM
DU-145 prostate
  TGI: > 100 µM
EKVX NSCLC
  TGI: > 100 µM
HCC-2998 colon
  TGI: > 100 µM
HCT-116 colon
  TGI: > 100 µM
HCT-15 colon
  TGI: > 100 µM
HL-60(TB) leukemia
  TGI: > 100 µM
HOP-62 NSCLC
  TGI: > 100 µM
HOP-92 NSCLC
  TGI: > 100 µM
HS 578T breast
  TGI: > 100 µM
HT29 colon
  TGI: > 100 µM
IGROV1 ovarian
  TGI: > 100 µM
K-562 leukemia
  TGI: > 100 µM
KM12 colon
  TGI: > 100 µM
LOX IMVI melanoma
  TGI: > 100 µM
M14 melanoma
  TGI: > 100 µM
MALME-3M melanoma
  TGI: > 100 µM
MCF7 breast
  TGI: > 100 µM
MDA-MB-231 breast
  TGI: > 100 µM
MDA-MB-435
  TGI: > 100 µM
MDA-N
  TGI: > 100 µM
MOLT-4 leukemia
  TGI: > 100 µM
NCI-H226 lung
  TGI: > 100 µM
NCI-H23 lung
  TGI: > 100 µM
NCI-H460 lung
  TGI: > 100 µM
NCI-H522 lung
  TGI: > 100 µM
NCI/ADR-RES ovarian
  TGI: > 100 µM
OVCAR-3 ovarian
  TGI: > 100 µM
OVCAR-4 ovarian
  TGI: > 100 µM
OVCAR-5 ovarian
  TGI: > 100 µM
OVCAR-8 ovarian
  TGI: > 100 µM
PC-3 prostate
  TGI: > 100 µM
RPMI-8226 leukemia
  TGI: > 100 µM
SF-268 CNS
  TGI: > 100 µM
SF-295 CNS
  TGI: > 100 µM
SF-539 CNS
  TGI: > 100 µM
SK-MEL-2 melanoma
  TGI: > 100 µM
SK-MEL-28 melanoma
  TGI: > 100 µM
SK-MEL-5 melanoma
  TGI: > 100 µM
SK-OV-3 ovarian
  TGI: > 100 µM
SN12C renal
  TGI: > 100 µM
SNB-19 CNS
  TGI: > 100 µM
SNB-75 CNS
  TGI: > 100 µM
SR leukemia
  TGI: > 100 µM
SW-620 colon
  TGI: > 100 µM
T-47D breast
  TGI: > 100 µM
TK-10 renal
  TGI: > 100 µM
U251 CNS
  TGI: > 100 µM
UACC-257 melanoma
  TGI: > 100 µM
UACC-62 melanoma
  TGI: > 100 µM
UO-31 renal
  TGI: > 100 µM

## O=c1[nH]c2ccc(CC(=S)N3CCCCC3)cc2s1
786-0 renal
  TGI: > 100 µM
ACHN renal
  TGI: > 100 µM
BT-549 breast
  TGI: > 100 µM
CAKI-1 renal
  TGI: > 100 µM
COLO 205 colon
  TGI: > 100 µM
DU-145 prostate
  TGI: > 100 µM
HCT-116 colon
  TGI: > 100 µM
HCT-15 colon
  TGI: > 100 µM
HOP-62 NSCLC
  TGI: > 100 µM
K-562 leukemia
  TGI: > 100 µM
KM12 colon
  TGI: > 100 µM
LOX IMVI melanoma
  TGI: > 100 µM
M14 melanoma
  TGI: > 100 µM
MCF7 breast
  TGI: > 100 µM
MDA-MB-231 breast
  TGI: > 100 µM
MDA-MB-435
  TGI: > 100 µM
MDA-N
  TGI: > 100 µM
MOLT-4 leukemia
  TGI: > 100 µM
NCI-H23 lung
  TGI: > 100 µM
OVCAR-3 ovarian
  TGI: > 100 µM
OVCAR-5 ovarian
  TGI: > 100 µM
OVCAR-8 ovarian
  TGI: > 100 µM
PC-3 prostate
  TGI: > 100 µM
SF-295 CNS
  TGI: > 100 µM
SK-MEL-2 melanoma
  TGI: > 100 µM
SK-MEL-28 melanoma
  TGI: > 100 µM
SK-OV-3 ovarian
  TGI: > 100 µM
SNB-19 CNS
  TGI: > 100 µM
SR leukemia
  TGI: > 100 µM
SW-620 colon
  TGI: > 100 µM
TK-10 renal
  TGI: > 100 µM
UACC-257 melanoma
  TGI: > 100 µM
UACC-62 melanoma
  TGI: > 100 µM

## N#Cc1nc(/C=C/c2cccnc2)oc1N
786-0 renal
  TGI: > 100 µM
A498 renal
  TGI: > 100 µM
A549 NSCLC
  TGI: > 100 µM
ACHN renal
  TGI: > 100 µM
CAKI-1 renal
  TGI: > 100 µM
CCRF-CEM leukemia
  TGI: > 100 µM
COLO 205 colon
  TGI: > 100 µM
DU-145 prostate
  TGI: > 100 µM
EKVX NSCLC
  TGI: > 100 µM
HCC-2998 colon
  TGI: > 100 µM
HCT-116 colon
  TGI: > 100 µM
HCT-15 colon
  TGI: > 100 µM
HL-60(TB) leukemia
  TGI: > 100 µM
HOP-62 NSCLC
  TGI: > 100 µM
HOP-92 NSCLC
  TGI: > 100 µM
HS 578T breast
  TGI: > 100 µM
HT29 colon
  TGI: > 100 µM
IGROV1 ovarian
  TGI: > 100 µM
K-562 leukemia
  TGI: > 100 µM
KM12 colon
  TGI: > 100 µM
LOX IMVI melanoma
  TGI: > 100 µM
M14 melanoma
  TGI: > 100 µM
MALME-3M melanoma
  TGI: > 100 µM
MCF7 breast
  TGI: > 100 µM
MDA-MB-231 breast
  TGI: > 100 µM
MDA-MB-435
  TGI: > 100 µM
MDA-N
  TGI: > 100 µM
MOLT-4 leukemia
  TGI: > 100 µM
NCI-H226 lung
  TGI: > 100 µM
NCI-H23 lung
  TGI: > 100 µM
NCI-H460 lung
  TGI: > 100 µM
NCI-H522 lung
  TGI: > 100 µM
NCI/ADR-RES ovarian
  TGI: > 100 µM
OVCAR-3 ovarian
  TGI: > 100 µM
OVCAR-4 ovarian
  TGI: > 100 µM
OVCAR-5 ovarian
  TGI: > 100 µM
PC-3 prostate
  TGI: > 100 µM
RPMI-8226 leukemia
  TGI: > 100 µM
RXF 393 renal
  TGI: > 100 µM
SF-268 CNS
  TGI: > 100 µM
SF-295 CNS
  TGI: > 100 µM
SF-539 CNS
  TGI: > 100 µM
SK-MEL-2 melanoma
  TGI: > 100 µM
SK-MEL-28 melanoma
  TGI: > 100 µM
SK-MEL-5 melanoma
  TGI: > 100 µM
SK-OV-3 ovarian
  TGI: > 100 µM
SN12C renal
  TGI: > 100 µM
SNB-19 CNS
  TGI: > 100 µM
SNB-75 CNS
  TGI: > 100 µM
SR leukemia
  TGI: > 100 µM
SW-620 colon
  TGI: > 100 µM
T-47D breast
  TGI: > 100 µM
TK-10 renal
  TGI: > 100 µM
U251 CNS
  TGI: > 100 µM
UACC-257 melanoma
  TGI: > 100 µM
UACC-62 melanoma
  TGI: > 100 µM
UO-31 renal
  TGI: > 100 µM
